We go through 23 molecules from paper PMC4441267.

Data set [1] in a line: CuAAC macrocyclisation to 1,4-triazole (CuI 2 eq, DIPEA 3 eq), Boc retained. The note with it: THF (reflux), 1.2 mM, 66.0 °C, 18.0 h.
The nature of data set [2]: CuAAC macrocyclisation of azide/terminal alkyne linear peptidomimetics to 1,4-triazole (CuI 2 eq, DIPEA 3 eq, Ar-degassed), then Boc removal (TMSCl/MeOH GP4; HCl/dioxane GP5 for A13w, J13w). The note with it: THF (reflux), 1.2 mM, 66.0 °C, 18.0 h, 2 steps.

Consider `COC(=O)[C@@H]1CCCCn2cc(nn2)CCC(=O)NCCCC[C@H](NC(=O)OC(C)(C)C)C(=O)N[C@H](C(=O)OC)CCC(=O)N1` [Boc-Lys(4-pentynoyl)-Glu(gamma-Lys(N3)-OMe)-OMe], for which the ring closure, isolated yield in data set [1] (from C#CCCC(=O)NCCCC[C@H](NC(=O)OC(C)(C)C)C(=O)N[C@@H](CCC(=O)N[C@@H](CCCCN=[N+]=[N-])C(=O)OC)C(=O)OC, 24-membered ring) worked out at 69%. `COC(=O)[C@@H]1CCCCn2cc(nn2)CCCC(=O)NCCCC[C@H](NC(=O)OC(C)(C)C)C(=O)N[C@H](C(=O)OC)CCC(=O)N1` [Boc-Lys(5-hexynoyl)-Glu(gamma-Lys(N3)-OMe)-OMe]: the ring closure, isolated yield in data set [1] (from C#CCCCC(=O)NCCCC[C@H](NC(=O)OC(C)(C)C)C(=O)N[C@@H](CCC(=O)N[C@@H](CCCCN=[N+]=[N-])C(=O)OC)C(=O)OC, 25-membered ring) was found to be 70%.

Molecule `COC(=O)[C@@H]1CCCCn2cc(nn2)CCC(=O)NCCC[C@H](NC(=O)OC(C)(C)C)C(=O)N[C@H](C(=O)OC)CCC(=O)N1` [Boc-Orn(4-pentynoyl)-Glu(gamma-Lys(N3)-OMe)-OMe] came in with a ring closure, isolated yield in data set [1] (from C#CCCC(=O)NCCC[C@H](NC(=O)OC(C)(C)C)C(=O)N[C@@H](CCC(=O)N[C@@H](CCCCN=[N+]=[N-])C(=O)OC)C(=O)OC, 23-membered ring) of 71%. Take `COC(=O)[C@@H]1CCCCn2cc(nn2)CNC(=O)NCCC[C@H](NC(=O)OC(C)(C)C)C(=O)N[C@H](C(=O)OC)CCC(=O)N1` [Boc-Orn(CONH-propargyl)-Glu(gamma-Lys(N3)-OMe)-OMe]: the ring closure, isolated yield in data set [1] (from C#CCNC(=O)NCCC[C@H](NC(=O)OC(C)(C)C)C(=O)N[C@@H](CCC(=O)N[C@@H](CCCCN=[N+]=[N-])C(=O)OC)C(=O)OC, 23-membered ring) was determined as 60%.

For `COC(=O)[C@@H]1CCCCn2cc(nn2)CNC(=O)NCCCC[C@H](NC(=O)OC(C)(C)C)C(=O)N[C@H](C(=O)OC)CCC(=O)N1` [Boc-Lys(CONH-propargyl)-Glu(gamma-Lys(N3)-OMe)-OMe], in data set [1] (from C#CCNC(=O)NCCCC[C@H](NC(=O)OC(C)(C)C)C(=O)N[C@@H](CCC(=O)N[C@@H](CCCCN=[N+]=[N-])C(=O)OC)C(=O)OC, 24-membered ring), the ring closure, isolated yield was 62%. In data set [2] (from C#CCNC(=O)NC[C@H](NC(=O)OC(C)(C)C)C(=O)N[C@@H](CNC(=O)[C@H](Cc1ccccc1)N=[N+]=[N-])C(=O)OC, 16-membered ring), `COC(=O)[C@@H]1CNC(=O)[C@H](Cc2ccccc2)n2cc(nn2)CNC(=O)NC[C@H](NC(=O)OC(C)(C)C)C(=O)N1` [Boc-Dap(CONH-propargyl)-Dap(N3-Phe)-OMe] displayed a ring closure, yield over several steps of 99%. Molecule `COC(=O)[C@@H]1CCCCn2cc(nn2)CCC(=O)NCCC[C@H](NC(=O)OC(C)(C)C)C(=O)N1` [Boc-Orn(4-pentynoyl)-Lys(N3)-OMe] returned a ring closure, yield over several steps in data set [2] (from C#CCCC(=O)NCCC[C@H](NC(=O)OC(C)(C)C)C(=O)N[C@@H](CCCCN=[N+]=[N-])C(=O)OC, 18-membered ring) of 93%. Take `COC(=O)[C@@H]1CCCn2cc(nn2)CNC(=O)NCCCC[C@H](NC(=O)OC(C)(C)C)C(=O)N1` [Boc-Lys(CONH-propargyl)-Orn(N3)-OMe]: in data set [2] (from C#CCNC(=O)NCCCC[C@H](NC(=O)OC(C)(C)C)C(=O)N[C@@H](CCCN=[N+]=[N-])C(=O)OC, 18-membered ring), the ring closure, yield over several steps worked out at 93%. In data set [2] (from C#CCCCC(=O)NCCC[C@H](NC(=O)OC(C)(C)C)C(=O)N[C@@H](CCCCNC(=O)[C@H](Cc1ccccc1)N=[N+]=[N-])C(=O)OC, 22-membered ring), `COC(=O)[C@@H]1CCCCNC(=O)[C@H](Cc2ccccc2)n2cc(nn2)CCCC(=O)NCCC[C@H](NC(=O)OC(C)(C)C)C(=O)N1` [Boc-Orn(5-hexynoyl)-Lys(N3-Phe)-OMe] returned a ring closure, yield over several steps of 99%.

In data set [2] (from C#CCNC(=O)NCCC[C@H](NC(=O)OC(C)(C)C)C(=O)N[C@@H](CCCN=[N+]=[N-])C(=O)OC, 17-membered ring), `COC(=O)[C@@H]1CCCn2cc(nn2)CNC(=O)NCCC[C@H](NC(=O)OC(C)(C)C)C(=O)N1` [Boc-Orn(CONH-propargyl)-Orn(N3)-OMe] yielded a ring closure, yield over several steps of 99%. `COC(=O)[C@@H]1CNC(=O)[C@H](Cc2ccccc2)n2cc(nn2)CCCC(=O)NC[C@H](NC(=O)OC(C)(C)C)C(=O)N1` [Boc-Dap(5-hexynoyl)-Dap(N3-Phe)-OMe]: the ring closure, yield over several steps in data set [2] (from C#CCCCC(=O)NC[C@H](NC(=O)OC(C)(C)C)C(=O)N[C@@H](CNC(=O)[C@H](Cc1ccccc1)N=[N+]=[N-])C(=O)OC, 17-membered ring) came out at 99%. In data set [2] (from C#CCNC(=O)NCC[C@H](NC(=O)OC(C)(C)C)C(=O)N[C@@H](CCCCN=[N+]=[N-])C(=O)OC, 17-membered ring), `COC(=O)[C@@H]1CCCCn2cc(nn2)CNC(=O)NCC[C@H](NC(=O)OC(C)(C)C)C(=O)N1` [Boc-Dab(CONH-propargyl)-Lys(N3)-OMe] gave a ring closure, yield over several steps of 99%. Regarding `COC(=O)[C@@H]1CCCn2cc(nn2)CCCC(=O)NCC[C@H](NC(=O)OC(C)(C)C)C(=O)N1` [Boc-Dab(5-hexynoyl)-Orn(N3)-OMe], the ring closure, yield over several steps in data set [2] (from C#CCCCC(=O)NCC[C@H](NC(=O)OC(C)(C)C)C(=O)N[C@@H](CCCN=[N+]=[N-])C(=O)OC, 17-membered ring) was determined as 60%. The molecule `COC(=O)[C@@H]1CCCCNC(=O)[C@H](Cc2ccccc2)n2cc(nn2)CNC(=O)NC[C@H](NC(=O)OC(C)(C)C)C(=O)N1` [Boc-Dap(CONH-propargyl)-Lys(N3-Phe)-OMe] displayed a ring closure, yield over several steps in data set [2] (from C#CCNC(=O)NC[C@H](NC(=O)OC(C)(C)C)C(=O)N[C@@H](CCCCNC(=O)[C@H](Cc1ccccc1)N=[N+]=[N-])C(=O)OC, 19-membered ring) of 99%.

In data set [2] (from C#CCCC(=O)NCCC[C@H](NC(=O)OC(C)(C)C)C(=O)N[C@@H](CCCN=[N+]=[N-])C(=O)OC, 17-membered ring), `COC(=O)[C@@H]1CCCn2cc(nn2)CCC(=O)NCCC[C@H](NC(=O)OC(C)(C)C)C(=O)N1` [Boc-Orn(4-pentynoyl)-Orn(N3)-OMe] came in with a ring closure, yield over several steps of 85%. In data set [2] (from C#CCCC(=O)NC[C@H](NC(=O)OC(C)(C)C)C(=O)N[C@@H](CNC(=O)[C@H](Cc1ccccc1)N=[N+]=[N-])C(=O)OC, 16-membered ring), `COC(=O)[C@@H]1CNC(=O)[C@H](Cc2ccccc2)n2cc(nn2)CCC(=O)NC[C@H](NC(=O)OC(C)(C)C)C(=O)N1` [Boc-Dap(4-pentynoyl)-Dap(N3-Phe)-OMe] came in with a ring closure, yield over several steps of 83%. `COC(=O)[C@@H]1CNC(=O)[C@H](Cc2ccccc2)n2cc(nn2)CCCC(=O)NCC[C@H](NC(=O)OC(C)(C)C)C(=O)N1` [Boc-Dab(5-hexynoyl)-Dap(N3-Phe)-OMe]: the ring closure, yield over several steps in data set [2] (from C#CCCCC(=O)NCC[C@H](NC(=O)OC(C)(C)C)C(=O)N[C@@H](CNC(=O)[C@H](Cc1ccccc1)N=[N+]=[N-])C(=O)OC, 18-membered ring) worked out at 70%. Consider `COC(=O)[C@@H]1CCCCNC(=O)[C@H](Cc2ccccc2)n2cc(nn2)CCC(=O)NC[C@H](NC(=O)OC(C)(C)C)C(=O)N1` [Boc-Dap(4-pentynoyl)-Lys(N3-Phe)-OMe], for which the ring closure, yield over several steps in data set [2] (from C#CCCC(=O)NC[C@H](NC(=O)OC(C)(C)C)C(=O)N[C@@H](CCCCNC(=O)[C@H](Cc1ccccc1)N=[N+]=[N-])C(=O)OC, 19-membered ring) stood at 99%. Take `COC(=O)[C@@H]1CCCn2cc(nn2)CNC(=O)NCC[C@H](NC(=O)OC(C)(C)C)C(=O)N1` [Boc-Dab(CONH-propargyl)-Orn(N3)-OMe]: the ring closure, yield over several steps in data set [2] (from C#CCNC(=O)NCC[C@H](NC(=O)OC(C)(C)C)C(=O)N[C@@H](CCCN=[N+]=[N-])C(=O)OC, 16-membered ring) was 29%. Take `COC(=O)[C@@H]1CCCCNC(=O)[C@H](Cc2ccccc2)n2cc(nn2)CNC(=O)NCCC[C@H](NC(=O)OC(C)(C)C)C(=O)N1` [Boc-Orn(CONH-propargyl)-Lys(N3-Phe)-OMe]: the ring closure, yield over several steps in data set [2] (from C#CCNC(=O)NCCC[C@H](NC(=O)OC(C)(C)C)C(=O)N[C@@H](CCCCNC(=O)[C@H](Cc1ccccc1)N=[N+]=[N-])C(=O)OC, 21-membered ring) came to 87%. `COC(=O)[C@@H]1CCCCn2cc(nn2)CNC(=O)NCCC[C@H](NC(=O)OC(C)(C)C)C(=O)N1` [Boc-Orn(CONH-propargyl)-Lys(N3)-OMe] yielded a ring closure, yield over several steps in data set [2] (from C#CCNC(=O)NCCC[C@H](NC(=O)OC(C)(C)C)C(=O)N[C@@H](CCCCN=[N+]=[N-])C(=O)OC, 18-membered ring) of 99%.

On to `COC(=O)[C@@H]1CCCCNC(=O)[C@H](Cc2ccccc2)n2cc(nn2)CCCC(=O)NC[C@H](NC(=O)OC(C)(C)C)C(=O)N1` [Boc-Dap(5-hexynoyl)-Lys(N3-Phe)-OMe], for which the ring closure, yield over several steps in data set [2] (from C#CCCCC(=O)NC[C@H](NC(=O)OC(C)(C)C)C(=O)N[C@@H](CCCCNC(=O)[C@H](Cc1ccccc1)N=[N+]=[N-])C(=O)OC, 20-membered ring) was found to be 99%. Molecule `COC(=O)[C@@H]1CCCCNC(=O)[C@H](Cc2ccccc2)n2cc(nn2)CNC(=O)NCC[C@H](NC(=O)OC(C)(C)C)C(=O)N1` [Boc-Dab(CONH-propargyl)-Lys(N3-Phe)-OMe] displayed a ring closure, yield over several steps in data set [2] (from C#CCNC(=O)NCC[C@H](NC(=O)OC(C)(C)C)C(=O)N[C@@H](CCCCNC(=O)[C@H](Cc1ccccc1)N=[N+]=[N-])C(=O)OC, 20-membered ring) of 80%.
